In ChEMBL document CHEMBL1150976, “The selectivity of protein kinase inhibitors: a further update” (Biochem J, 2007):

Key:
[1] = target: Cyclin-dependent kinase 2/cyclin A (Homo sapiens, UniProt P24941); assay: Inhibition of CDK2-cyclinA in the presence of 20uM ATP; type: protein-complex assay
[2] = target: Maternal embryonic leucine zipper kinase (Homo sapiens) (UniProt Q14680); assay: Percentage MELK activity remaining in the presence of 3uM inhibitor
[3] = target: Ephrin type-A receptor 2 (Homo sapiens, UniProt P29317); assay: Inhibition of Eph-A2 in the presence of 50uM ATP
Sequence of Ephrin type-A receptor 2 (P29317 whole entry): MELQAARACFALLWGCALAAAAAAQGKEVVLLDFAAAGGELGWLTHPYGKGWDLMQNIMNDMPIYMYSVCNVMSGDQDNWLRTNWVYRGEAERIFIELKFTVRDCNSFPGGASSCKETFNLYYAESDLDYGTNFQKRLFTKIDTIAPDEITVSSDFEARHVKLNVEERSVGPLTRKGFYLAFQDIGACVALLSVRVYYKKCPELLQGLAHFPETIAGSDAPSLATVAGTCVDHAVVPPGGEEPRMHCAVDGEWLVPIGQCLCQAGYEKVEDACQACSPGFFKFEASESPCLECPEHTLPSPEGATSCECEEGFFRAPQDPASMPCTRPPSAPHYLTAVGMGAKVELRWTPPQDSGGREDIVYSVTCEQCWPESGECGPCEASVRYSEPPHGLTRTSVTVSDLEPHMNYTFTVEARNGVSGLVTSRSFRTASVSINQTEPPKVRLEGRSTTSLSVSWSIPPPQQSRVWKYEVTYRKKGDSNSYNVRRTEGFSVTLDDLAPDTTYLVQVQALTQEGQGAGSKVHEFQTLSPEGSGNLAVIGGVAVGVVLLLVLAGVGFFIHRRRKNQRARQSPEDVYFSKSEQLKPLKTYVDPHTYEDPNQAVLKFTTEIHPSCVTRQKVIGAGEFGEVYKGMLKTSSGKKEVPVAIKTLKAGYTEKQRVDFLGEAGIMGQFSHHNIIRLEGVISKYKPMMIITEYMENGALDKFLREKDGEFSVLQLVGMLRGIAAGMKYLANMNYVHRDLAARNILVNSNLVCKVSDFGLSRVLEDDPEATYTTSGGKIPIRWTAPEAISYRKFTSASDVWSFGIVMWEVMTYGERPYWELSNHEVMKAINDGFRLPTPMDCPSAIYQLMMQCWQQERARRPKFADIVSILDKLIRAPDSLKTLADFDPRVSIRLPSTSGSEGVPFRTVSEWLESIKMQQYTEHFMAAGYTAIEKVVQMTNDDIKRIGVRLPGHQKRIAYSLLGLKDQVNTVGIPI

[4] = target: T1, Serine/threonine-protein kinase BRSK2 (Homo sapiens) (UniProt Q8IWQ3); assay: Percentage BRSK2 activity remaining in the presence of 2uM inhibitor
T1 sequence (whole entry): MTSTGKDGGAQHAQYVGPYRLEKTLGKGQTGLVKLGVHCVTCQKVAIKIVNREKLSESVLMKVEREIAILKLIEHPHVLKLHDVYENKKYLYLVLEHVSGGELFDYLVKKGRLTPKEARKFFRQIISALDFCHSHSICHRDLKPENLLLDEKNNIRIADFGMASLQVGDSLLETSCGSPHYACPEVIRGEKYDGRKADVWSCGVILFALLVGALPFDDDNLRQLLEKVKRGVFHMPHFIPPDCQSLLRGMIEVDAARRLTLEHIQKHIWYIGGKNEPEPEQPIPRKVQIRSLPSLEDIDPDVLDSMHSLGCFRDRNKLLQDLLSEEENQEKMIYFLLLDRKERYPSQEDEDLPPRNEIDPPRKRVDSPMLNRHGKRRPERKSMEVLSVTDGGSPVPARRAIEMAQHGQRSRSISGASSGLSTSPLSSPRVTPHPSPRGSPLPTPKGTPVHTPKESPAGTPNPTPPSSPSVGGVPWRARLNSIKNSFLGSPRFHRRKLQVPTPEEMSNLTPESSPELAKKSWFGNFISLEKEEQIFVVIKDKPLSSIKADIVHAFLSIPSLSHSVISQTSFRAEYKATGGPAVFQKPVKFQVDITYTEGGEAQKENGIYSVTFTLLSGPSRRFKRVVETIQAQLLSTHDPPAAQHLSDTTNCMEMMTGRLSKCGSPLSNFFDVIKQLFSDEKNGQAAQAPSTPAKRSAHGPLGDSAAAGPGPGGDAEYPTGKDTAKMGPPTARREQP

[5] = target: Mitogen-activated protein kinase 14 (Homo sapiens, UniProt Q16539); assay: Percentage p38alpha activity remaining in the presence of 2uM inhibitor
Sequence of Mitogen-activated protein kinase 14 (Q16539 whole entry): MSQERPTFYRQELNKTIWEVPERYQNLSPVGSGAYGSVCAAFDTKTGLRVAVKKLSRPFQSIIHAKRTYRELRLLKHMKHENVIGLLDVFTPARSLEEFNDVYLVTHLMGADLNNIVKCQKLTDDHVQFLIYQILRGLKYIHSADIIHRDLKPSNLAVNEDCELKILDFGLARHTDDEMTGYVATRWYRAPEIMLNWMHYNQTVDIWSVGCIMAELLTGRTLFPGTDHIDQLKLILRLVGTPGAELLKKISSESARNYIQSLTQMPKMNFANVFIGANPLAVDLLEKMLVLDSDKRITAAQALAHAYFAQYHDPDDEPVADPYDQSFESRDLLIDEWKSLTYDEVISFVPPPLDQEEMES

[6] = target: T2, Mitogen-activated protein kinase 12 (Homo sapiens) (UniProt P53778); assay: Percentage p38-gamma activity remaining in the presence of 2uM inhibitor
T2 sequence (whole entry): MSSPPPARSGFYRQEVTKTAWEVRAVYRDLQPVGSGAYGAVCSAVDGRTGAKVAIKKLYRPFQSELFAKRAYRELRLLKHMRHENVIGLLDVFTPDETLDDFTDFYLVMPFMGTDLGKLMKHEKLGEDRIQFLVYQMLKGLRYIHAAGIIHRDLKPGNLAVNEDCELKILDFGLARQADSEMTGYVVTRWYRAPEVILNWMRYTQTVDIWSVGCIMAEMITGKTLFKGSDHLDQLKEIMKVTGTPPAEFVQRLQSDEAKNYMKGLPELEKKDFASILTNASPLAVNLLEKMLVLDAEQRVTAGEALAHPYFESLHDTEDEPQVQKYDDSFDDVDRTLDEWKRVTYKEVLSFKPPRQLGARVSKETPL

[7] = target: MAP kinase-activated protein kinase 3 (Homo sapiens) (UniProt Q16644); assay: Percentage MAPKAPK3 activity remaining in the presence of 2uM inhibitor
Sequence of MAP kinase-activated protein kinase 3 (Homo sapiens) (Q16644 whole entry, looked up): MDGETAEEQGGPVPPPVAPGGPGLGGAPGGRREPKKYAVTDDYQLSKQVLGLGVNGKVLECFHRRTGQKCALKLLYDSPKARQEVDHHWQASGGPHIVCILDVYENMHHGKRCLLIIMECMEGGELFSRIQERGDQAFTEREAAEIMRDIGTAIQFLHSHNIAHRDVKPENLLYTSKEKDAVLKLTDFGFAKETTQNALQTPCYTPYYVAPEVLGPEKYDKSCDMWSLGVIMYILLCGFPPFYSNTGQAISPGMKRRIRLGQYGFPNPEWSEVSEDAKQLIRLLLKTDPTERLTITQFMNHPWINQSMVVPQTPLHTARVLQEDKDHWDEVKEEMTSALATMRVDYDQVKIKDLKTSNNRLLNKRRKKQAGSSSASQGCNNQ

[8] = target: T3, Serine/threonine-protein kinase D1 (Homo sapiens) (UniProt Q15139); assay: Percentage PKD1 activity remaining in the presence of 2uM inhibitor
T3 sequence (whole entry): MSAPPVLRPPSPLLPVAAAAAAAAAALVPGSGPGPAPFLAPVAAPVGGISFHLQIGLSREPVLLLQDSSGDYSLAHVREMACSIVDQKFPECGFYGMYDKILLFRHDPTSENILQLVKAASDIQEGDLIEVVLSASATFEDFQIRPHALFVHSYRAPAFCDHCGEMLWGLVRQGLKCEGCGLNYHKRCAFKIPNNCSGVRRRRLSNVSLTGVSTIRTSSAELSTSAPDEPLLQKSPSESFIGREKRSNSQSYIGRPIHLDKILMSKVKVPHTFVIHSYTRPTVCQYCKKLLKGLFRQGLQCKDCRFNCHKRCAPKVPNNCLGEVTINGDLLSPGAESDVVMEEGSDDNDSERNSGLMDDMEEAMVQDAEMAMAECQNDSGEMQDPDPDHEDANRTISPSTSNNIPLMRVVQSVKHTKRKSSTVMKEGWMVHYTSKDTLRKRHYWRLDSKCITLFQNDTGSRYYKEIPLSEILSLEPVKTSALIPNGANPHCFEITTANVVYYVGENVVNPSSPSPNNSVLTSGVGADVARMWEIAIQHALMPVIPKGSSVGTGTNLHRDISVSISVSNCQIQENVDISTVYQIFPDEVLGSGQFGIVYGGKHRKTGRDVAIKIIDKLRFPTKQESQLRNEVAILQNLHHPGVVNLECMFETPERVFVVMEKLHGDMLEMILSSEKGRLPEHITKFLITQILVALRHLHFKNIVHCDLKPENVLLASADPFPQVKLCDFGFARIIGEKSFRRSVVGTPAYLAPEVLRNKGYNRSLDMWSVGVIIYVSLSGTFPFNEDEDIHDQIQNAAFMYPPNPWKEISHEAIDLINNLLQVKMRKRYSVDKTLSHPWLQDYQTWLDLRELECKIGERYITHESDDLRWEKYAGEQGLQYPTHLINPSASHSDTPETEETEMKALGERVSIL

[9] = target: MAP kinase-interacting serine/threonine-protein kinase 1 (Homo sapiens) (UniProt Q9BUB5); assay: Percentage MNK1 activity remaining in the presence of 2uM inhibitor
Sequence of MAP kinase-interacting serine/threonine-protein kinase 1 (Homo sapiens) (Q9BUB5 whole entry, looked up): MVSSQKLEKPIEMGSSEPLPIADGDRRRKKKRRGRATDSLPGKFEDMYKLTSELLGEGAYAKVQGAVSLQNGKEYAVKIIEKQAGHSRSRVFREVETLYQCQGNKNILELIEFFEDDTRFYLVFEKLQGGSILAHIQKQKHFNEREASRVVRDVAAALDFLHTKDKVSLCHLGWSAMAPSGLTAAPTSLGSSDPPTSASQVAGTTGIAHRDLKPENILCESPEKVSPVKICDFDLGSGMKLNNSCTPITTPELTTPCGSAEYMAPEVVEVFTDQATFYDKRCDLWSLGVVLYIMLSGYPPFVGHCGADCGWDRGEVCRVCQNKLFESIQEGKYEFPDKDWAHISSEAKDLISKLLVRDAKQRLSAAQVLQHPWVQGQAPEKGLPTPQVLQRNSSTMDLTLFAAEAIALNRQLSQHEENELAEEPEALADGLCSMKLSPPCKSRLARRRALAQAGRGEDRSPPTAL

[10] = target: Serine/threonine-protein kinase N2 (Homo sapiens) (UniProt Q16513); assay: Percentage PRK2 activity remaining in the presence of 2uM inhibitor
Sequence of Serine/threonine-protein kinase N2 (Homo sapiens) (Q16513 whole entry, looked up): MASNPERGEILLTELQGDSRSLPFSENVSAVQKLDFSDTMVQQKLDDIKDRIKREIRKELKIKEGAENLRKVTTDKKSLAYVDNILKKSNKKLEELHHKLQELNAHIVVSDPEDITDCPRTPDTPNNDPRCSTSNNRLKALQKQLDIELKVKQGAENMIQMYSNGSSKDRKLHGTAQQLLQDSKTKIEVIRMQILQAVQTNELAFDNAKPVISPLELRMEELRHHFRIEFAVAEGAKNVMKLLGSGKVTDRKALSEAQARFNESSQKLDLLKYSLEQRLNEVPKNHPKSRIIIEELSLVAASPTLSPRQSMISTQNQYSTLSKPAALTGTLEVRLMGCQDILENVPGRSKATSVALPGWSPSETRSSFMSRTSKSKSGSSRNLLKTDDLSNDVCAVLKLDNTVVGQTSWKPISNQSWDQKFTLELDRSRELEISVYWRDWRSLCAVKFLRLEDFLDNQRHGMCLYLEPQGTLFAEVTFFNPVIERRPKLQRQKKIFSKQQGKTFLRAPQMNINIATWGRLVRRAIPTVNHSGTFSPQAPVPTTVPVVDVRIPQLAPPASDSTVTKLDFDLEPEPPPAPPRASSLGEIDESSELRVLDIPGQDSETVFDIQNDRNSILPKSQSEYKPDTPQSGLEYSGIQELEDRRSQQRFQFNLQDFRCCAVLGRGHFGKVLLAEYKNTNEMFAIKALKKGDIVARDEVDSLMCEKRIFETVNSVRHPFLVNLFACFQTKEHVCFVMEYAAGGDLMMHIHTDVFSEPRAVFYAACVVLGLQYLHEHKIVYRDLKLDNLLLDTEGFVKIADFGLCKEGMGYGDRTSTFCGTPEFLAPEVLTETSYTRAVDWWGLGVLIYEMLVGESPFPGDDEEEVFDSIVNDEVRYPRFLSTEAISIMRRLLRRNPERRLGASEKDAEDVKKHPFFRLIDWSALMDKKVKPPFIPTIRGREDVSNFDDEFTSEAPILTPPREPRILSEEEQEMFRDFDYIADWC

Sequence of Maternal embryonic leucine zipper kinase (Homo sapiens) (Q14680 whole entry, looked up): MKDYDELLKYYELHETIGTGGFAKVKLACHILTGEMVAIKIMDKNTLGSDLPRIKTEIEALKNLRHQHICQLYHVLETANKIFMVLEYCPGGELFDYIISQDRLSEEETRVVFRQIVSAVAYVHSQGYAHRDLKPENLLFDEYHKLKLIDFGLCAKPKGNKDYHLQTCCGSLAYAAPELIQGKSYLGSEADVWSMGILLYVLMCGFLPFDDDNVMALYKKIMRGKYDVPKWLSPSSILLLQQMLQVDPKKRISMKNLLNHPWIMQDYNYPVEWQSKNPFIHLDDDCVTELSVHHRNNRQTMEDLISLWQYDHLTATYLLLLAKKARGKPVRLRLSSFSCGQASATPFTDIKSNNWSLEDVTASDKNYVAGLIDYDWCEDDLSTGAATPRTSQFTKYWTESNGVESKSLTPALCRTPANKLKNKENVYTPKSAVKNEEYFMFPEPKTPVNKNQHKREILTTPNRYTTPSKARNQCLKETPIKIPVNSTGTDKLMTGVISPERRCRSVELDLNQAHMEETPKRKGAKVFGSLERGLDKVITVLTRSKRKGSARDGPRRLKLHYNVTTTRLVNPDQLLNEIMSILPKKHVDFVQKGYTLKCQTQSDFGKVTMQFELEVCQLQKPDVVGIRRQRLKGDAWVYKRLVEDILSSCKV

CC(C)[C@H](CO)Nc1nc(Nc2cccc(Cl)c2)c2ncn(C(C)C)c2n1 [PURVALANOLA]
IC50 [1]: 30 nM (antagonist)

Cc1ccc(-c2c(C(=O)CF)n(CCCO)c3ncnc(N)c23)cc1
Activity [2]: 65% | IC50 [3]: 760 nM (antagonist)

Cn1cc(C2=C(c3ccc(Cl)cc3Cl)C(=O)NC2=O)c2ccccc21
Activity [4]: 83% | Activity [5]: 77% | Activity [6]: 84% | Activity [7]: 103% | Activity [8]: 100% | Activity [9]: 85% | Activity [10]: 81%
